The values below come from ChEMBL document CHEMBL3600385 (Bioorg Med Chem Lett, 2015).

Structures are written as SMILES. Calls of active or inactive are those of the source. The calls are words filed in the database; no cut-off is given here.

Assay [1] deals with T1, Neuronal acetylcholine receptor subunit alpha-7 (Rattus norvegicus, UniProt Q05941).
Assay [2] concerns the target Neuronal acetylcholine receptor subunit alpha-7 (Rattus norvegicus) (UniProt Q05941). Nature of the assay: Agonist activity at rat alpha-7 nicotinic acetylcholine receptor expressed in Xenopus oocytes assessed as ratio of maximum response to compound to that induced by 1 mM acetylcholine at 1 mM treated for 3 to 4 secs followed by compound washout for 4 mins by two-electrode voltage-clamp electrophysiology assay. In kind it is cell-based. In general terms: In two-electrode clamp one electrode senses voltage and the other passes current.

Assay [3] has the same target. In words: Antagonist activity at rat alpha-7 nicotinic acetylcholine receptor expressed in Xenopus oocytes assessed as inhibition of nicotine-induced current amplitudes at IC50 for acetylcholine-induced currents preincubated for 10 mins followed by nicotine induction by two-electrode voltage-clamp electrophysiology assay relative to control. The class given is cell-based.

In assay [4] the target is T1, Neuronal acetylcholine receptor subunit alpha-7. In words: Antagonist activity at rat alpha-7 nicotinic acetylcholine receptor expressed in Xenopus oocytes assessed as inhibition of acetylcholine-induced currents preincubated for 10 mins followed by nicotine induction by two-electrode voltage-clamp electrophysiology assay. The class given is cell-based.
For assay [5], the target named is Neuronal acetylcholine receptor subunit alpha-7 (Rattus norvegicus) (UniProt Q05941).
Chain of Neuronal acetylcholine receptor subunit alpha-7 (Rattus norvegicus) (Q05941 whole entry): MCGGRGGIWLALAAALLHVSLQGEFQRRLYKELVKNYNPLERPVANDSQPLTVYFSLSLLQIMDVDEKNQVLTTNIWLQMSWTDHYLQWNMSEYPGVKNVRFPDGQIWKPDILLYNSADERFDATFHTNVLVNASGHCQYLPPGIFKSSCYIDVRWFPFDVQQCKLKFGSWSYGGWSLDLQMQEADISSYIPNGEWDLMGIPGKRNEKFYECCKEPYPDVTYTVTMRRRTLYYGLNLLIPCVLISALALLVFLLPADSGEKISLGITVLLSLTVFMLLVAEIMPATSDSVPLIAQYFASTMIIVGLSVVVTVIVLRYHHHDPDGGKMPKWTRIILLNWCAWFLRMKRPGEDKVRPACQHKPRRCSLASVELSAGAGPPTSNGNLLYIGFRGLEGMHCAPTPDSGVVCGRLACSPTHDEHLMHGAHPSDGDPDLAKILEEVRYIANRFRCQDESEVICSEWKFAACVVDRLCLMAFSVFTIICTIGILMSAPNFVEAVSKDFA

T1 sequence (Q05941 whole entry): as above

With `O=C(NC1CN2CCC1CC2)c1ccccc1F` (stereo not drawn), in assay [1], a half-maximal response (EC50) required 56.5 µM. In addition, the Ratio in assay [2] is 0.19. For the same molecule, the inhibition (usually the relative decrease from the control value, in per cent) in assay [3] is 26.5%. In addition, the concentration for half-maximal inhibition (IC50) (usually the concentration that gives 50% inhibition) in assay [4] is 8.07 µM.

As for `O=C(N[C@@H]1C[N+]2(CCl)CCC1CC2)c1ccccc1F`, the inhibition in assay [3] was determined as 33.2%. Besides, in assay [5], the pEC50 entry is “inactive”. Moreover, the half-inhibitory concentration (IC50) in assay [4] was determined as 39.3 µM.

In the case of `COc1cc(N)c(Cl)cc1C(=O)NC1CN2CCC1CC2` (stereo not drawn) [ZACOPRIDE], in assay [2], the Ratio came out at 0.038. Moreover, the inhibition in assay [3] turned out to be 4.37%. For the same molecule, in assay [4], the half-maximal inhibitory concentration (IC50) turned out to be 7.04 µM.

As to `O=C(N[C@H]1C[N+]2(CCl)CCC1CC2)c1ccccc1F`, the Ratio in assay [2] was determined as 0.021. Moreover, in assay [3], the inhibition came to 65.7%. Moreover, in assay [4], the IC50 came out at 28.4 µM.
